From PubChem BioAssay (NCI)
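Interpolation was linear, between the two tested concentrations surrounding the appropriate level; five concentrations were tested over 48 hours in 96-well plates. GI50: concentration for 50% inhibition of growth. TGI is the concentration that stops growth completely.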

Columns and labels:
Assay in all cases: NCI anticancer screen, dose series, 48 h
[1] = system: K-562 leukemia
[2] = system: HCT-15 colon
[3] = system: SK-OV-3 ovarian
[4] = system: MDA-MB-435
[5] = system: HCT-116 colon
[6] = system: SK-MEL-2 melanoma
[7] = system: SW-620 colon
[8] = system: DU-145 prostate
[9] = system: SK-MEL-5 melanoma
[10] = system: NCI-H460 lung
[11] = system: UACC-257 melanoma
[12] = system: NCI/ADR-RES ovarian
[13] = system: NCI-H23 lung
[14] = system: A498 renal
[15] = system: NCI-H522 lung
[16] = system: HOP-62 NSCLC
[17] = system: SN12C renal
[18] = system: T-47D breast
[19] = system: TK-10 renal
[20] = system: SNB-19 CNS
[21] = system: MALME-3M melanoma
[22] = system: KM12 colon
[23] = system: SF-268 CNS
[24] = system: CAKI-1 renal
[25] = system: SR leukemia
[26] = system: BT-549 breast
[27] = system: OVCAR-3 ovarian
[28] = system: EKVX NSCLC
[29] = system: MOLT-4 leukemia
[30] = system: M14 melanoma
[31] = system: LOX IMVI melanoma
[32] = system: ACHN renal
[33] = system: RPMI-8226 leukemia
[34] = system: SF-539 CNS
[35] = system: UACC-62 melanoma
[36] = system: CCRF-CEM leukemia
[37] = system: MDA-MB-231 breast
[38] = system: HCC-2998 colon
[39] = system: A549 NSCLC
[40] = system: COLO 205 colon
[41] = system: SK-MEL-28 melanoma
[42] = system: HS 578T breast
[43] = system: U251 CNS
[44] = system: 786-0 renal
[45] = system: SF-295 CNS
[46] = system: SNB-75 CNS
[47] = system: HOP-92 NSCLC
[48] = system: IGROV1 ovarian
[49] = system: UO-31 renal
[50] = system: HT29 colon
[51] = system: MCF7 breast
[52] = system: HL-60(TB) leukemia
[53] = system: OVCAR-4 ovarian
[54] = system: NCI-H226 lung
[55] = system: OVCAR-8 ovarian

O=C(/C=C/c1cccc(O)c1)c1cccc(-n2cc(-c3ccc(Cl)cc3)[nH]c2=O)c1
GI50 [1]: 405 nM | TGI [1]: 3.63 µM | GI50 [2]: 2340 nM | TGI [2]: 10.5 µM | GI50 [3]: 4.22 µM | TGI [3]: 17.2 µM | GI50 [4]: 2060 nM | TGI [4]: 6.64 µM | GI50 [5]: 1230 nM | TGI [5]: 2520 nM | GI50 [6]: 2070 nM | TGI [6]: 4.67 µM | GI50 [7]: 1620 nM | TGI [7]: 4.74 µM | GI50 [8]: 1680 nM | TGI [8]: 4.18 µM | GI50 [9]: 1530 nM | TGI [9]: 3.36 µM | GI50 [10]: 2410 nM | TGI [10]: 5.99 µM | GI50 [11]: 4.07 µM | TGI [11]: 26.3 µM | GI50 [12]: 2200 nM | TGI [12]: 5.96 µM | GI50 [13]: 2780 nM | TGI [13]: 10.6 µM | GI50 [14]: 3.71 µM | TGI [14]: 16.1 µM | GI50 [15]: 1650 nM | TGI [15]: 4.36 µM | GI50 [16]: 2360 nM | TGI [16]: 4.88 µM | GI50 [17]: 1950 nM | TGI [17]: 5.93 µM | GI50 [18]: 1920 nM | TGI [18]: 6.03 µM | GI50 [19]: 2830 nM | TGI [19]: 9.13 µM | GI50 [20]: 1920 nM | TGI [20]: 4.37 µM | GI50 [21]: 1830 nM | TGI [21]: 6.16 µM | GI50 [22]: 1340 nM | TGI [22]: 3 µM | GI50 [23]: 1780 nM | TGI [23]: 3.94 µM | GI50 [24]: 1720 nM | TGI [24]: 4.07 µM | GI50 [25]: 217 nM | TGI [25]: 1070 nM | GI50 [26]: 1450 nM | TGI [26]: 3.72 µM | GI50 [27]: 1560 nM | TGI [27]: 3.44 µM | GI50 [28]: 2400 nM | TGI [28]: 9.62 µM | GI50 [29]: 535 nM | TGI [29]: 6.31 µM | GI50 [30]: 2010 nM | TGI [30]: 4.44 µM | GI50 [31]: 1570 nM | TGI [31]: 3.11 µM | GI50 [32]: 1840 nM | TGI [32]: 4.13 µM | GI50 [33]: 1550 nM | TGI [33]: 4.64 µM | GI50 [34]: 1680 nM | TGI [34]: 3.22 µM | GI50 [35]: 1850 nM | TGI [35]: 4.27 µM | GI50 [36]: 1760 nM | TGI [36]: 9.97 µM | GI50 [37]: 3.35 µM | TGI [37]: 17.3 µM | GI50 [38]: 13.7 µM | TGI [38]: 27.6 µM | GI50 [39]: 3.55 µM | TGI [39]: > 100 µM | GI50 [40]: 2290 nM | TGI [40]: 4.95 µM | GI50 [41]: 3.64 µM | TGI [41]: 15.9 µM | GI50 [42]: 4 µM | TGI [42]: 44 µM | GI50 [43]: 588 nM | TGI [43]: 2150 nM | GI50 [44]: 1570 nM | TGI [44]: 2990 nM | GI50 [45]: 1790 nM | TGI [45]: 3.88 µM | GI50 [46]: 1460 nM | TGI [46]: 3.04 µM | GI50 [47]: 1600 nM | TGI [47]: 5.41 µM | GI50 [48]: 1920 nM | TGI [48]: 6.38 µM | GI50 [49]: 558 nM | TGI [49]: 3.46 µM | GI50 [50]: 1900 nM | TGI [50]: 3.99 µM | GI50 [51]: 1290 nM | TGI [51]: 3.76 µM | GI50 [52]: 1090 nM | TGI [52]: 3.51 µM | GI50 [53]: 2210 nM | TGI [53]: 8.96 µM | GI50 [54]: 2310 nM | TGI [54]: 5.5 µM | GI50 [55]: 998 nM | TGI [55]: > 100 µM
